Source: ChEMBL document CHEMBL6153040, “Discovery of the salicylaldehyde-based compound DDO-02267 as a lysine-targeting covalent inhibitor of ALKBH5” (Eur J Med Chem, 2025)
pIC50, pKd: −log10 of the molar value. Active and inactive are the calls of the source. The rule behind the calls is not given here.

Tests used:
RNA demethylase ALKBH5 [1] = target: T1, RNA demethylase ALKBH5 (Homo sapiens, UniProt Q6P6C2); experiment: Inhibition of ALKBH5 (66 to 292 residues) (unknown origin) extracted from Escherichia coli BL21 (DE3) cells using m6A ssDNA as substrate measured after 6 hrs by fluorescence polarization assay
Target sequence in this assay (Q6P6C2 whole entry, the tested form may be a part): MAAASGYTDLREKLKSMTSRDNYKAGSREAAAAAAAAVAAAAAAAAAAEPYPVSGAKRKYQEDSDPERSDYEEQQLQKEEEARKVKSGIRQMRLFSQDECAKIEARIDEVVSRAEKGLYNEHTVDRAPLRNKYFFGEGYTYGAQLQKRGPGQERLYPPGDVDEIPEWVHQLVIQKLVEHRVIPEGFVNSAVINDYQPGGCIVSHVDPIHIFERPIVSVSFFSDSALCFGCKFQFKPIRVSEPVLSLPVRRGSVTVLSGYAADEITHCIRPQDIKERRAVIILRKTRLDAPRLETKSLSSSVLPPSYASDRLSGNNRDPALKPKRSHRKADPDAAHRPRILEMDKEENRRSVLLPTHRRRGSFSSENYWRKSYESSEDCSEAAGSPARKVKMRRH

RNA demethylase ALKBH5 [2] = target: T1, RNA demethylase ALKBH5; experiment: Induction of thermal stabilization of ALKBH5 in human MOLM-13 cells at 20 uM incubated for 30 min and measured after 3 mins incubation under 45 to 65 degreeC by […] assay; format: cell-based; settings: time 33.0 min
Target sequence in this assay (Q6P6C2 2-394 limits assumed): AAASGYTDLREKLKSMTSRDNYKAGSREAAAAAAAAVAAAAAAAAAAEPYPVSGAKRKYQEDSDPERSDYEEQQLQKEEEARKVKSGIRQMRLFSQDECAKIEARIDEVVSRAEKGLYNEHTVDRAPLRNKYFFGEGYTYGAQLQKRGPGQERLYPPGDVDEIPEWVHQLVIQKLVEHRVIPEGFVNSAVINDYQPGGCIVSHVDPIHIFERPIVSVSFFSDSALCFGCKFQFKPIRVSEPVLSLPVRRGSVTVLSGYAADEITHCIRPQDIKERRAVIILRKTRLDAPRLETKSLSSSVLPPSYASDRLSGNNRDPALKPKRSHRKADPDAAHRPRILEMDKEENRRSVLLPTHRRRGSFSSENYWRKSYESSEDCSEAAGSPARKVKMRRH

RNA demethylase ALKBH5 [3] = target: T1, RNA demethylase ALKBH5; experiment: Inhibition of ALKBH5 (66 to 292 residues) (unknown origin) demethylase activity extracted from Escherichia coli BL21 (DE3) cells at 200 uM preincubated for 3 hrs and measured after compound washout by small molecule dilution method
Target sequence in this assay (Q6P6C2 2-394 limits assumed): as above

[4] = tested on: RNA demethylase ALKBH5 (Homo sapiens), Q6P6C2 [K132E]; experiment: Induction of thermal stabilization of ALKBH5 K132E mutant (66 to 292 residues) (unknown origin) extracted from Escherichia coli BL21 (DE3) cells assessed as melting temperature by thermal shift assay (reference value: 47.05 degreeC)
RNA demethylase ALKBH5 [5] = target: T1, RNA demethylase ALKBH5; experiment: Inhibition of ALKBH5 (66 to 292 residues) (unknown origin) extracted from Escherichia coli BL21 (DE3) cells using m6A ssDNA as substrate measured after 180 mins by fluorescence polarization assay
Target sequence in this assay (Q6P6C2 whole entry, the tested form may be a part): as the sequence (Q6P6C2 whole entry, the tested form may be a part) above

RNA demethylase ALKBH5 [6] = target: T1, RNA demethylase ALKBH5; experiment: Inhibition of ALKBH5 (66 to 292 residues) (unknown origin) extracted from Escherichia coli BL21 (DE3) cells using m6A ssDNA as substrate measured after 300 mins by fluorescence polarization assay
Target sequence in this assay (Q6P6C2 whole entry, the tested form may be a part): as above

RNA demethylase ALKBH5 [7] = target: T1, RNA demethylase ALKBH5; experiment: Binding affinity to ALKBH5 (66 to 292 residues) (unknown origin) extracted from Escherichia coli BL21 (DE3) cells assessed as dissociation constant incubated for 1.5 hrs by MST analysis
Target sequence in this assay (Q6P6C2 whole entry, the tested form may be a part): as above

RNA demethylase ALKBH5 [8] = target: T1, RNA demethylase ALKBH5; experiment: Binding affinity to ALKBH5 (66 to 292 residues) (unknown origin) extracted from Escherichia coli BL21 (DE3) cells assessed as dissociation constant incubated for 5 hrs by MST analysis
Target sequence in this assay (Q6P6C2 whole entry, the tested form may be a part): as above

RNA demethylase ALKBH5 [9] = target: T1, RNA demethylase ALKBH5; experiment: Inhibition of ALKBH5 (66 to 292 residues) (unknown origin) extracted from Escherichia coli BL21 (DE3) cells using m6A ssDNA as substrate assessed as maximum inactivation rate constant (Kinact) measured after 6 hrs by fluorescence polarization assay
Target sequence in this assay (Q6P6C2 2-394 limits assumed): as the sequence (Q6P6C2 2-394 limits assumed) above

RNA demethylase ALKBH5 [10] = target: T1, RNA demethylase ALKBH5; experiment: Inhibition of ALKBH5 (66 to 292 residues) (unknown origin) extracted from Escherichia coli BL21 (DE3) cells using m6A ssDNA as substrate assessed as Kinact/Ki ratio measured after 6 hrs by fluorescence polarization assay
Target sequence in this assay (Q6P6C2 2-394 limits assumed): as above

RNA demethylase ALKBH5 [11] = target: T1, RNA demethylase ALKBH5; experiment: Binding affinity to ALKBH5 (66 to 292 residues) (unknown origin) extracted from Escherichia coli BL21 (DE3) cells at 1:1 protein:compound ratio by mass spectrometry analysis
Target sequence in this assay (Q6P6C2 2-394 limits assumed): as above

[12] = target: T2, Alpha-ketoglutarate-dependent dioxygenase FTO (Homo sapiens, UniProt Q9C0B1); experiment: Inhibition of FTO (32 to 505 residues) (unknown origin) extracted from Escherichia coli BL21 (DE3) cells by fluorescence polarization assay
Target sequence in this assay (Q9C0B1 whole entry, the tested form may be a part): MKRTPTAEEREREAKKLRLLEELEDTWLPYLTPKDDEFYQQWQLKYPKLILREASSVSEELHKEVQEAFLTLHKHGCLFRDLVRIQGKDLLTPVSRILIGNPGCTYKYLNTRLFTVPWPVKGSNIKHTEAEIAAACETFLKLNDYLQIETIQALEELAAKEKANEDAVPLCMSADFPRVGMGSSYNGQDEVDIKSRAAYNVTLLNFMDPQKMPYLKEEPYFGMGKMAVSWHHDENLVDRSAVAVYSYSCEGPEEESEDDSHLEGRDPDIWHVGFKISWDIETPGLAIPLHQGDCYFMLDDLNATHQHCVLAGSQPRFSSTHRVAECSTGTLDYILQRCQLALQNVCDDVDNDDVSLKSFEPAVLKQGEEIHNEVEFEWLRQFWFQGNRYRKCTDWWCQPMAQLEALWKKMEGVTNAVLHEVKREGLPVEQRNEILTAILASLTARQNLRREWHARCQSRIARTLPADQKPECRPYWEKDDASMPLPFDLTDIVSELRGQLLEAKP

[13] = Selectivity ratio of IC50 for FTO (32 to 505 residues) (unknown origin) extracted from Escherichia coli BL21 (DE3) cells to IC50 for ALKBH5 (66 to 292 residues) (unknown origin) extracted from Escherichia coli BL21 (DE3) cells by restriction enzyme digestion assay
[14] = target: T3, Alpha-ketoglutarate-dependent dioxygenase alkB homolog 3 (Homo sapiens, UniProt Q96Q83); experiment: Inhibition of ALKBH3 (unknown origin) by restriction enzyme digestion method
T3 sequence (Q96Q83 whole entry): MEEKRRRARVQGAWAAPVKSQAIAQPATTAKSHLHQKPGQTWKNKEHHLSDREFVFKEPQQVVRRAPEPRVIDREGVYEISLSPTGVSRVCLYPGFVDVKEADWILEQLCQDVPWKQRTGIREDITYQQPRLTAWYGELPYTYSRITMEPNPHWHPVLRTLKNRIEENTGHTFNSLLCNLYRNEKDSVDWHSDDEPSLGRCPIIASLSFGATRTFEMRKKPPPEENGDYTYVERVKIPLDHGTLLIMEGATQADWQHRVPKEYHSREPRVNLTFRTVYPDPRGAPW

[15] = target: T2, Alpha-ketoglutarate-dependent dioxygenase FTO; experiment: Inhibition of FTO (32 to 505 residues) (unknown origin) extracted from Escherichia coli BL21 (DE3) cells using m6A ssDNA as substrate incubated for 2 hrs by TBE-PAGE based restriction enzyme digestion assay
Target sequence in this assay (Q9C0B1 whole entry, the tested form may be a part): as the sequence (Q9C0B1 whole entry, the tested form may be a part) above

RNA demethylase ALKBH5 [16] = target: T1, RNA demethylase ALKBH5; experiment: Inhibition of ALKBH5 (66 to 292 residues) (unknown origin) extracted from Escherichia coli BL21 (DE3) cells using m6A ssDNA as substrate at 1.25 to 10 uM incubated for 2 hrs in presence of 2-OG by TBE-PAGE based restriction enzyme digestion assay; settings: dose 1.25-10 µM
Target sequence in this assay (Q6P6C2 2-394 limits assumed): as the sequence (Q6P6C2 2-394 limits assumed) above

MOLM-13 [17] = experiment: Induction of cell cycle arrest in human MOLM-13 cells assessed as accumulation of cells at G0/G1 phase at 40 uM incubated for 72 hrs by flow cytometry analysis (reference value: 65.53 %); format: functional
MOLM-13 [18] = experiment: Induction of cell cycle arrest in human MOLM-13 cells assessed as accumulation of cells at S phase at 40 uM incubated for 72 hrs by flow cytometry analysis (reference value: 17.47 %); format: functional
MOLM-13 [19] = experiment: Induction of apoptosis in human MOLM-13 cells assessed as early apoptotic cells at 40 uM incubated for 72 hrs by Annexin V FITC/PI staining based flow cytometry analysis (reference value: 4.32%); format: functional
MOLM-13 [20] = experiment: Induction of apoptosis in human MOLM-13 cells assessed as late apoptotic cells at 40 uM incubated for 72 hrs by Annexin V FITC/PI staining based flow cytometry analysis (reference value: 4.28 %); format: functional
MOLM-13 [21] = experiment: Induction of apoptosis in human MOLM-13 cells assessed as early apoptotic cells at 80 uM incubated for 72 hrs by Annexin V FITC/PI staining based flow cytometry analysis (reference value: 4.32%); format: functional
MOLM-13 [22] = experiment: Induction of apoptosis in human MOLM-13 cells assessed as late apoptotic cells at 80 uM incubated for 72 hrs by Annexin V FITC/PI staining based flow cytometry analysis (reference value: 4.28 %); format: functional
MOLM-13 [23] = experiment: Induction of apoptosis in human MOLM-13 cells assessed as necrotic cells at 80 uM incubated for 72 hrs by Annexin V FITC/PI staining based flow cytometry analysis (reference value: 1.75 %); format: functional
RNA demethylase ALKBH5 [24] = target: T1, RNA demethylase ALKBH5; experiment: Inhibition of ALKBH5 (66 to 292 residues) (unknown origin) extracted from Escherichia coli BL21 (DE3) cells using m6A ssDNA as substrate measured immediately by fluorescence polarization assay
Target sequence in this assay (Q6P6C2 whole entry, the tested form may be a part): as the sequence (Q6P6C2 whole entry, the tested form may be a part) above

RNA demethylase ALKBH5 [25] = target: T1, RNA demethylase ALKBH5; experiment: Inhibition of ALKBH5 (66 to 292 residues) (unknown origin) extracted from Escherichia coli BL21 (DE3) cells using m6A ssDNA as substrate at 5 uM incubated for 2 hrs by TBE-PAGE based restriction enzyme digestion assay
[26] = tested on: RNA demethylase ALKBH5 (Homo sapiens), Q6P6C2 [K132E]; experiment: Induction of thermal stabilization of ALKBH5 K132E mutant (66 to 292 residues) (unknown origin) extracted from Escherichia coli BL21 (DE3) cells assessed as change in melting temperature by thermal shift assay
[27] = target: T2, Alpha-ketoglutarate-dependent dioxygenase FTO; experiment: Induction of thermal stabilization of FTO (32 to 505 residues) (unknown origin) extracted from Escherichia coli BL21 (DE3) cells assessed as change in melting temperature by thermal shift assay
Target sequence in this assay (Q9C0B1 whole entry, looked up, the tested form may be a part): as the sequence (Q9C0B1 whole entry, the tested form may be a part) above

Chain of RNA demethylase ALKBH5 (Homo sapiens), Q6P6C2 [K132E] (Q6P6C2 whole entry K132E, the tested form may be a part): as the sequence (Q6P6C2 whole entry, the tested form may be a part) above, with K132E counted along it

In the case of `O=Cc1cc(S(=O)(=O)NC(=O)c2cc(C(=O)O)ccn2)c2ccccc2c1O`, the pIC50 (RNA demethylase ALKBH5 [1]) was 6.77, the Activity (RNA demethylase ALKBH5 [2]) was “Active” and the inhibition (RNA demethylase ALKBH5 [3]) was “Active”. The Tm [4] was 46.1 °C, the pIC50 (RNA demethylase ALKBH5 [5]) was 6.55 and the pIC50 (RNA demethylase ALKBH5 [6]) was 6.70. It also gave a pKd (RNA demethylase ALKBH5 [7]) of 5.94, a pKd (RNA demethylase ALKBH5 [8]) of 6.25 and a Kinact (RNA demethylase ALKBH5 [9]) of 14.2 min⁻¹. The Ratio (RNA demethylase ALKBH5 [10]) was 0.03 µM⁻¹ min⁻¹, the Activity (RNA demethylase ALKBH5 [11]) was “Active; Mass Peak Of 28,181.6 Da Observed” and the pIC50 [12] was 4.85. It also gave a Ratio IC50 [13] of 10, a pIC50 [14] of 4.12 and a pIC50 [15] of 4.71. For the same molecule, the inhibition (RNA demethylase ALKBH5 [16]) was “Active”, the Activity (MOLM-13 [17]) was 68.23% and the Activity (MOLM-13 [18]) was 5.67%. For the same molecule, the Activity (MOLM-13 [19]) was 10.4%, the Activity (MOLM-13 [20]) was 4.62% and the Activity (MOLM-13 [21]) was 9.16%. It also gave an Activity (MOLM-13 [22]) of 12%, an Activity (MOLM-13 [23]) of 1.2% and a pIC50 (RNA demethylase ALKBH5 [24]) of 5.84. For the same molecule, the inhibition (RNA demethylase ALKBH5 [25]) was “Active”, the ΔTm [26] was less than 1 °C and the ΔTm [27] was less than 1 °C.
